One assay deals with HSV-1. Kind of assay: Inhibition of HSV-1 viral replication (virus yield reduction assay, Vero cells). The settings on record: 14-16 hours. The format is cell-based, herpes simplex virus type-1. The procedure:
(§1) Compounds of the formulas II and III of the present invention are evaluated in an assay to measure the inhibition of HSV-1 viral replication in the presence of drug over a 14-16 hour period. The assay is discussed in detail by Pritchard, M. N. et al. "A Microliter Virus Yield Reduction Assay for the Evaluation of Antiviral Compounds Against Human Cytomegalovirus and Herpes Simplex Virus", J. Virol. Meth., Vol. 28, pp 101-106 (1990). Briefly, 80% confluent monolayers of Vero cells in 24 well plates are infected with low multiplicities of HSV-1 (MOI=0.001). After an absorption period of 1 hour at 37° C., the monolayers are rinsed with culture media and aliquots of compounds diluted into tissue culture media are added for 14-16 hours at 37° C. in a CO2 atmosphere. The growth media is removed and 1 ml of fresh media is added to each well and plates are placed at -70° C. After a 1-5 day storage period the plates are rapidly thawed, samples are collected on ice and titrated on fresh Vero cell monolayers. Viral plaques are stained with 0.1% crystal violet in 20% alcohol for 10 minutes and are counted. Data are calculated to reflect the percentage of inhibition at indicated concentration relative to infected, non-drug treated controls.
(§2) In the Tables, the sign "+++" refers to >90% inhibition at the indicated concentration. The sign "++" refers to >50% inhibition at the indicated concentration. The sign "+" refers to <50% inhibition at the indicated concentration. The sign "-" refers that no inhibitory activity is observed at the indicated concentration. A blank cell means the datum is not available.

In a further assay the test system is HSV-2. Kind of assay: Inhibition of HSV-2 viral replication (substantially same assay as HSV-1). The format is cell-based, herpes simplex virus type-2. Conditions: 14-16 hours. Here is the method:
as §1
Compounds of the formulas II and III of the present invention are also evaluated in substantially the same assay as described above to measure the inhibition of HSV-2 viral replication.
as §2

Another assay deals with VZV. Kind of assay: Inhibition of VZV replication (plaque reduction, HFF cells). Conditions: five days. It is filed as cell-based, varicella zoster virus. The procedure:
Antiviral activity against VZV are evaluated in an assay to measure the reduction of viral replication in the number viral plaques formed over five days of incubation in the presence of compounds of the present invention. Aliquots of VZV are added for 90 minutes to 24 well plates having HFF cells at 80% confluence to yield approximately 25 plaques for media treated wells. The plates are flicked and dilutions of compounds in tissue culture media at 2 time strength are added (0.5 ml per well). Immediately following the addition of drug 0.5 ml of 1.0% agarose is added to the wells and the plates are gently tapped to aid mixing. This final concentration of agarose (0.5%) is […] to solidify at 37° C. and serves as a semi solid overlay medium. Plates are undisturbed for five days. On day 5 the plates are examined microscopically for toxicity and plaques are counted using low power microscopy.
as §2

Molecules are shown by their SMILES.

The values below come from US5958983A, “Polyaromatic antiviral compositions” (Pharmacia & Upjohn Company, priority 1998, dated 1999).

With `COc1cccc(NS(=O)(=O)c2ccc(Oc3ccc(S(=O)(=O)Nc4cccc(OC)c4)cc3)cc2)c1` [Example 9, bis[N-(3-methoxyphenyl)aminosulfonyl](oxydi-4,1-phenylene)], in the assay on HSV-1, the “% Inhibition Against HSV-1 Viral Replication, 5 μm” value is “+ (<50% inhibition at the indicated concentration)” and the “% Inhibition Against HSV-1 Viral Replication, 30 μm” value is listed as “+++ (>90% inhibition at the indicated concentration)”.
In the case of `COc1ccc(NC(=O)Nc2ccc(Cl)cc2)cc1NC(=O)Nc1ccc(Cl)cc1` [Example 3, N,N"-(4-methoxy-1,3-phenylene)bis[N'-(4-chlorophenyl)urea]], in the assay with HSV-1, the “% Inhibition Against HSV-1 Viral Replication, 5 μm” value was “+ (<50% inhibition at the indicated concentration)” and the “% Inhibition Against HSV-1 Viral Replication, 30 μm” value was “+ (<50% inhibition at the indicated concentration)”.
Consider `Cc1ccc(NC(=S)Nc2ccc(Cl)cc2)cc1NC(=S)Nc1ccc(Cl)cc1` [Example 1, N,N"-(4-methyl-1,3-phenylene)bis[N'-(4-chlorophenyl)thiourea]], for which, in the assay on HSV-1, the “% Inhibition Against HSV-1 Viral Replication, 5 μm” value is on record as “- (no inhibitory activity is observed at the indicated concentration)” and the “% Inhibition Against HSV-1 Viral Replication, 30 μm” value is reported as “+ (<50% inhibition at the indicated concentration)”.
Consider `COc1ccc(NC(=O)Nc2ccc(C)cc2)cc1NC(=O)Nc1ccc(C)cc1` [Example 4, N,N"-(4-methoxy-1,3-phenylene)bis[N'-(p-tolyl)urea]], for which, in the assay with HSV-1, the “% Inhibition Against HSV-1 Viral Replication, 5 μm” value is “+ (<50% inhibition at the indicated concentration)” and the “% Inhibition Against HSV-1 Viral Replication, 30 μm” value is “+ (<50% inhibition at the indicated concentration)”.
Regarding `O=S(=O)(c1ccc(O)cc1)c1ccc(OCc2ccc(Cl)cc2)cc1` [Example 22, (4-chlorobenzyloxy)hydroxy(sulfonyldi-4,1-phenylene)], in the assay with HSV-1, the “% Inhibition Against HSV-1 Viral Replication, 5 μm” value is “- (no inhibitory activity is observed at the indicated concentration)” and the “% Inhibition Against HSV-1 Viral Replication, 30 μm” value was “++ (>50% inhibition at the indicated concentration)”.
For the compound `N=C(Nc1ccc(Cc2ccc(NC(=N)c3ccccc3)cc2)cc1)c1ccccc1` [Example 13, N,N"-(methylenedi-4,1-phenylene)bis [benzenecarboximidamide]], in the assay on HSV-1, the “% Inhibition Against HSV-1 Viral Replication, 5 μm” value is on record as “+ (<50% inhibition at the indicated concentration)” and the “% Inhibition Against HSV-1 Viral Replication, 30 μm” value is listed as “+++ (>90% inhibition at the indicated concentration)”. Moreover, in the assay with HSV-2, the “% Inhibition Against HSV-2 Viral Replication, 1 μm” value is “+ (<50% inhibition at the indicated concentration)” and the “% Inhibition Against HSV-2 Viral Replication, 10 μm” value is reported as “+++ (>90% inhibition at the indicated concentration)”. In addition, the “% Inhibition Against VZV Viral Replication, 2 μm” value with VZV is given as “+ (<50% inhibition at the indicated concentration)”.
As to `COc1ccc(NC(=S)Nc2ccc(Cl)cc2)cc1NC(=S)Nc1ccc(Cl)cc1` [Example 6, N,N"-(4-methoxy-1,3-phenylene)bis[N'-(4-chlorophenyl)thiourea]], in the assay on HSV-1, the “% Inhibition Against HSV-1 Viral Replication, 5 μm” value is recorded as “- (no inhibitory activity is observed at the indicated concentration)” and the “% Inhibition Against HSV-1 Viral Replication, 30 μm” value is “+ (<50% inhibition at the indicated concentration)”.
For `Cc1cccc(NS(=O)(=O)c2ccc(Oc3ccc(S(=O)(=O)Nc4cccc(C)c4)cc3)cc2)c1` [Example 11, bis[N-(3-methylphenyl)aminosulfonyl](oxydi-4,1-phenylene)], in the assay with HSV-1, the “% Inhibition Against HSV-1 Viral Replication, 5 μm” value is “- (no inhibitory activity is observed at the indicated concentration)” and the “% Inhibition Against HSV-1 Viral Replication, 30 μm” value is “++ (>50% inhibition at the indicated concentration)”.
For the compound `O=S(=O)(c1ccc(OCc2ccncc2)cc1)c1ccc(OCc2ccncc2)cc1` [Example 19, bis [(4-pyridyl)methoxy](sulfonyldi-4,1-phenylene)], in the assay with HSV-1, the “% Inhibition Against HSV-1 Viral Replication, 5 μm” value is “+ (<50% inhibition at the indicated concentration)” and the “% Inhibition Against HSV-1 Viral Replication, 30 μm” value is on record as “+ (<50% inhibition at the indicated concentration)”.
As to `O=S(=O)(c1ccc(OCc2ccc(F)cc2)cc1)c1ccc(OCc2ccc(F)cc2)cc1` [Example 20, bis(4-fluorobenzyloxy)(sulfonyldi-4,1-phenylene)], in the assay on HSV-1, the “% Inhibition Against HSV-1 Viral Replication, 5 μm” value was “+ (<50% inhibition at the indicated concentration)” and the “% Inhibition Against HSV-1 Viral Replication, 30 μm” value is on record as “++ (>50% inhibition at the indicated concentration)”.
As to `S=C(NCCc1ccccc1)Nc1ccc(Oc2ccc(NC(=S)NCCc3ccccc3)cc2)cc1` [Example 15, N,N"-(oxydi-4,1-phenylene)bis[N'-(2-phenylethyl)thiourea]], in the assay with HSV-1, the “% Inhibition Against HSV-1 Viral Replication, 5 μm” value is “+ (<50% inhibition at the indicated concentration)” and the “% Inhibition Against HSV-1 Viral Replication, 30 μm” value was “+ (<50% inhibition at the indicated concentration)”. In the assay on HSV-2, the “% Inhibition Against HSV-2 Viral Replication, 1 μm” value is reported as “+ (<50% inhibition at the indicated concentration)” and the “% Inhibition Against HSV-2 Viral Replication, 10 μm” value is reported as “+ (<50% inhibition at the indicated concentration)”. Moreover, the “% Inhibition Against VZV Viral Replication, 2 μm” value with VZV is given as “+++ (>90% inhibition at the indicated concentration)”.
`O=S(=O)(c1ccc(OCc2ccc(Cl)cc2)cc1)c1ccc(OCc2ccc(Cl)cc2)cc1` [Example 17, bis(4-chlorobenzyloxy)(sulfonyldi-4,1-phenylene)]: in the assay on HSV-1, the “% Inhibition Against HSV-1 Viral Replication, 5 μm” value is recorded as “+ (<50% inhibition at the indicated concentration)” and the “% Inhibition Against HSV-1 Viral Replication, 30 μm” value is listed as “++ (>50% inhibition at the indicated concentration)”. Further, in the assay with HSV-2, the “% Inhibition Against HSV-2 Viral Replication, 1 μm” value was “++ (>50% inhibition at the indicated concentration)” and the “% Inhibition Against HSV-2 Viral Replication, 10 μm” value is recorded as “++ (>50% inhibition at the indicated concentration)”. For the same compound, the “% Inhibition Against VZV Viral Replication, 2 μm” value in the assay with VZV is “++ (>50% inhibition at the indicated concentration)”.
`O=C(Nc1ccc(Oc2ccc(NC(=O)c3ccco3)cc2)cc1)c1ccco1` [Example 16, N,N"-(oxydi-4,1-phenylene)bis(2-furancarboxamide)]: in the assay on HSV-1, the “% Inhibition Against HSV-1 Viral Replication, 5 μm” value is on record as “+ (<50% inhibition at the indicated concentration)” and the “% Inhibition Against HSV-1 Viral Replication, 30 μm” value was “++ (>50% inhibition at the indicated concentration)”.
For `Cc1ccc(NS(=O)(=O)c2cccc(S(=O)(=O)Nc3ccc(C)cc3)c2)cc1` [Example 10, N,N"-(1,3-phenylene)bis[N-(p-tolyl)aminosulfonyl]], in the assay on HSV-1, the “% Inhibition Against HSV-1 Viral Replication, 5 μm” value is on record as “+ (<50% inhibition at the indicated concentration)” and the “% Inhibition Against HSV-1 Viral Replication, 30 μm” value was “++ (>50% inhibition at the indicated concentration)”.
On to `O=S(=O)(c1ccc(OCc2ccc(Br)cc2)cc1)c1ccc(OCc2ccc(Br)cc2)cc1` [Example 18, bis(4-bromobenzyloxy)(sulfonyldi-4,1-phenylene)], for which, in the assay on HSV-1, the “% Inhibition Against HSV-1 Viral Replication, 5 μm” value was “+ (<50% inhibition at the indicated concentration)” and the “% Inhibition Against HSV-1 Viral Replication, 30 μm” value is recorded as “++ (>50% inhibition at the indicated concentration)”. The “% Inhibition Against VZV Viral Replication, 10 μm” value in the assay with VZV (10 μm) is on record as “+++ (>90% inhibition at the indicated concentration)”.
`O=[N+]([O-])c1ccc(COc2ccc(S(=O)(=O)c3ccc(O)cc3)cc2)cc1` [Example 21, hydroxy(4-nitrobenzyloxy)(sulfonyldi-4,1-phenylene)]: in the assay on HSV-1, the “% Inhibition Against HSV-1 Viral Replication, 5 μm” value was “- (no inhibitory activity is observed at the indicated concentration)” and the “% Inhibition Against HSV-1 Viral Replication, 30 μm” value is listed as “++ (>50% inhibition at the indicated concentration)”.
